Experimental findings from patent publication US11247990B1, “Bicyclic fused pyridine compounds as inhibitors of TAM kinases” (ARRAY BIOPHARMA INC., priority 2017, dated 2022) are described below.

Common to all, as to details: averaged IC50
Experiment [1] deals with His-tagged recombinant human MER cytoplasmic domain (Homo sapiens (Human), UniProt Q12866). In words: MER Enzyme Assay (LanthaScreen Eu Kinase Binding, TR-FRET). An outline of the steps:
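Percent of control, derived from ratiometric TR-FRET emission, was fitted to a 4-parameter logistic curve and IC50 taken at 50 POC. Binding was read after 60 min at 22 °C using Eu-based LanthaScreen technology and recombinant His-tagged MER cytoplasmic domain.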
(In general: In TR-FRET formats the signal depends on donor and acceptor labels being close together.)

The target in experiment [2] is His-tagged recombinant human AXL cytoplasmic domain (Homo sapiens (Human), UniProt P30530). Briefly: AXL Enzyme Assay (LanthaScreen Eu Kinase Binding, TR-FRET). An outline of the steps: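 Compound displacement measured by TR-FRET after 60 min at 22 °C, using Eu-based LanthaScreen binding technology. Ratiometric emission converted to percent of control, fitted to a 4-parameter logistic curve, with IC50 at 50 POC.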
His-tagged recombinant human AXL cytoplasmic domain, sequence (P30530 473-894): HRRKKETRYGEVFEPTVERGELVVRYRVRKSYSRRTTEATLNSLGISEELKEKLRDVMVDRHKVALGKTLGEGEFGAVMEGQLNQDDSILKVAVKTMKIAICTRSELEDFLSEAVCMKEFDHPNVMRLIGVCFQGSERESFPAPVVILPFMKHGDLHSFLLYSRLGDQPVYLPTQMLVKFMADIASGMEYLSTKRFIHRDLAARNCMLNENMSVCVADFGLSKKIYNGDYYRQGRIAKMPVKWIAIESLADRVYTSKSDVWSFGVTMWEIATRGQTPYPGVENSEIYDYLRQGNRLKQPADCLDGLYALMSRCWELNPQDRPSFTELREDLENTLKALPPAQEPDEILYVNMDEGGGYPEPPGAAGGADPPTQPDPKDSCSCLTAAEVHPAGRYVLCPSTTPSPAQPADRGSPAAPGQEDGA

Experiment [3] concerns the target GST-tagged recombinant human TYRO3 kinase domain (Homo sapiens (Human), UniProt Q06418). Briefly: TYRO3 Enzyme Assay (LanthaScreen Eu Kinase Binding, TR-FRET). The gist of the method: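 LanthaScreen Eu binding (tracer displacement) format read by TR-FRET after 60 min at 22 °C. Emission ratio converted to percent of control; IC50 taken where a 4-parameter logistic fit crosses 50 POC.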

Broadly, the IC50 is the midpoint of a concentration-inhibition curve.

SMILES strings stand for the structures. Where only a bound is given, the exact number is not on record here.

GST-tagged recombinant human TYRO3 kinase domain, sequence (Q06418 518-790): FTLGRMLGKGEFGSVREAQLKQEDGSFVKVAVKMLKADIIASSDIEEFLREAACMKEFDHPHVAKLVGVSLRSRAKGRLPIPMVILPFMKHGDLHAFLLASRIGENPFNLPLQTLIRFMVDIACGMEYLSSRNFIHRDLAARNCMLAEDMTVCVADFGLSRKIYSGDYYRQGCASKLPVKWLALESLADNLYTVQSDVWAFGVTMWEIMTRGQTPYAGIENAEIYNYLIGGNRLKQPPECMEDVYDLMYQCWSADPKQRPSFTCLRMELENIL
His-tagged recombinant human MER cytoplasmic domain, sequence (Q12866 527-999): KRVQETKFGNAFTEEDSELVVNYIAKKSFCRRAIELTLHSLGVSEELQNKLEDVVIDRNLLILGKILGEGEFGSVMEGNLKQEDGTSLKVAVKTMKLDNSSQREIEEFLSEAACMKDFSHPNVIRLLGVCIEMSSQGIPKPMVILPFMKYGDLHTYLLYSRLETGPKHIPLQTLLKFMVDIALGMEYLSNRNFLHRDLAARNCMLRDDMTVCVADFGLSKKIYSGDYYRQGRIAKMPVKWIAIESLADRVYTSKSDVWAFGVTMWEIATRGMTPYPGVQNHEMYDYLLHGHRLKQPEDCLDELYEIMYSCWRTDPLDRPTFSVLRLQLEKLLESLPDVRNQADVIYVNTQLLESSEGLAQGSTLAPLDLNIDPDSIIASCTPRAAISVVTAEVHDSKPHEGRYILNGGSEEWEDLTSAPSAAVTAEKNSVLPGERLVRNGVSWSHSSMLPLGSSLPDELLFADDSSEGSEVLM

Consider `CCNc1cc2c(cn1)c(-c1ccn(C)c(=O)c1)nn2[C@H]1CC[C@@H](Oc2nccc(C(F)(F)F)c2F)CC1` [Example 297, 4-(6-(ethylamino)-1-((1s,4s)-4-((3-fluoro-4-(trifluoromethyl)pyridin-2-yl)oxy)cyclohexyl)-1H-pyrazolo[4,3-c]pyridin-3-yl)-1-methylpyridin-2(1H)-one], for which the half-inhibitory concentration (IC50) in experiment [1] is less than 10 nM; in experiment [2], less than 10 nM; in experiment [3], 10 to 100 nM.
On to `CCNc1cc2c(cn1)c(-c1ccc(=O)n(C)c1)nn2[C@H]1CC[C@@H](Oc2nccc(C(F)(F)F)c2F)CC1` [Example 298, 5-(6-(ethylamino)-1-((1s,4s)-4-((3-fluoro-4-(trifluoromethyl)pyridin-2-yl)oxy)cyclohexyl)-1H-pyrazolo[4,3-c]pyridin-3-yl)-1-methylpyridin-2(1H)-one], for which the IC50 in experiment [1] was less than 10 nM; in experiment [2], less than 10 nM; in experiment [3], 10 to 100 nM.
As to `CCNc1cc2c(cn1)c(-c1cnn(C(C)(C)CO)c1)nn2[C@H]1CC[C@@H](Oc2nccc(C(F)(F)F)c2F)CC1` [Example 299, 2-(4-(6-(ethylamino)-1-((1s,4s)-4-((3-fluoro-4-(trifluoromethyl)pyridin-2-yl)oxy)cyclohexyl)-1H-pyrazolo[4,3-c]pyridin-3-yl)-1H-pyrazol-1-yl)-2-methylpropan-1-ol], the IC50 in experiment [1] is less than 10 nM; in experiment [2], less than 10 nM; in experiment [3], 10 to 100 nM.
In the case of `CCNc1cc2c(cn1)c(-c1cnn(CC(C)(C)O)c1)nn2[C@H]1CC[C@@H](Oc2nccc(C(F)(F)F)c2F)CC1` [Example 300, 1-(4-(6-(ethylamino)-1-((1s,4s)-4-((3-fluoro-4-(trifluoromethyl)pyridin-2-yl)oxy)cyclohexyl)-1H-pyrazolo[4,3-c]pyridin-3-yl)-1H-pyrazol-1-yl)-2-methylpropan-2-ol], the IC50 in experiment [1] was less than 10 nM; in experiment [2] it was less than 10 nM; in experiment [3], 10 to 100 nM.
In the case of `CCNc1cc2c(cn1)c(-c1cnc(C)o1)nn2[C@H]1CC[C@@H](Oc2nccc(C(F)(F)F)c2F)CC1` [Example 308, N-ethyl-1-((1s,4s)-4-((3-fluoro-4-(trifluoromethyl)pyridin-2-yl)oxy)cyclohexyl)-3-(2-methyloxazol-5-yl)-1H-pyrazolo[4,3-c]pyridin-6-amine], the IC50 was less than 10 nM in experiment [1], less than 10 nM in experiment [2] and 100 to 1000 nM in experiment [3].
For the compound `CCNc1cc2c(cn1)c(-c1cnn(C)c1)nn2[C@H]1CC[C@@H](Oc2c[nH]nc2C(F)(F)F)CC1` [Example 311, N-ethyl-3-(1-methyl-1H-pyrazol-4-yl)-1-((1s,4s)-4-((3-(trifluoromethyl)-1H-pyrazol-4-yl)oxy)cyclohexyl)-1H-pyrazolo[4,3-c]pyridin-6-amine], the IC50 in experiment [1], in experiment [2] and in experiment [3] was less than 10 nM in each case.
`CCNc1cc2c(cn1)c(-c1cnn(C(C)(C)C#N)c1)nn2[C@H]1CC[C@@H](Oc2cn[nH]c2C(F)(F)F)CC1` [Example 312, 2-(4-(6-(ethylamino)-1-((1s,4s)-4-((5-(trifluoromethyl)-1H-pyrazol-4-yl)oxy)cyclohexyl)-1H-pyrazolo[4,3-c]pyridin-3-yl)-1H-pyrazol-1-yl)-2-methylpropanenitrile]: the IC50 in experiment [1], in experiment [2] and in experiment [3] was less than 10 nM throughout.
`CCNc1cc2c(cn1)c(C1CCN(C)CC1)nn2[C@H]1CC[C@@H](Oc2cn[nH]c2C(F)(F)F)CC1` [Example 313, N-ethyl-3-(1-methylpiperidin-4-yl)-1-((1s,4s)-4-((5-(trifluoromethyl)-1H-pyrazol-4-yl)oxy)cyclohexyl)-1H-pyrazolo[4,3-c]pyridin-6-amine]: the IC50 in experiment [1], in experiment [2] and in experiment [3] was less than 10 nM throughout.
Consider `CCNc1cc2c(cn1)c(C1CCN(C)CC1)nn2[C@H]1CC[C@@H](Oc2nccc(C(F)(F)F)c2F)CC1` [Example 316, N-ethyl-1-((1s,4s)-4-((3-fluoro-4-(trifluoromethyl)pyridin-2-yl)oxy)cyclohexyl)-3-(1-methylpiperidin-4-yl)-1H-pyrazolo[4,3-c]pyridin-6-amine], for which the values for the half-maximal inhibitory concentration (IC50) in experiment [1], in experiment [2] and in experiment [3] were less than 10 nM, less than 10 nM and 10 to 100 nM, respectively.
Take `CCNc1cc2c(cn1)c(C1CCNCC1)nn2[C@H]1CC[C@@H](Oc2nccc(C(F)(F)F)c2F)CC1` [Example 319, N-ethyl-1-((1s,4s)-4-((3-fluoro-4-(trifluoromethyl)pyridin-2-yl)oxy)cyclohexyl)-3-(piperidin-4-yl)-1H-pyrazolo[4,3-c]pyridin-6-amine]: the IC50 in experiment [1], in experiment [2] and in experiment [3] was less than 10 nM in each case.
Consider `CCNc1cc2c(cn1)c(C1CCNC1)nn2[C@H]1CC[C@@H](Oc2nccc(C(F)(F)F)c2F)CC1` (stereo partly drawn) [Example 320, N-ethyl-1-((1s,4s)-4-((3-fluoro-4-(trifluoromethyl)pyridin-2-yl)oxy)cyclohexyl)-3-(pyrrolidin-3-yl)-1H-pyrazolo[4,3-c]pyridin-6-amine], for which the IC50 in experiment [1] was less than 10 nM; in experiment [2] it was less than 10 nM; in experiment [3], 10 to 100 nM.
For the compound `CCNc1cc2c(cn1)c(C1CCCN(C)C1)nn2[C@H]1CC[C@@H](Oc2nccc(C(F)(F)F)c2F)CC1` (stereo partly drawn) [Example 324, N-ethyl-1-((1s,4s)-4-((3-fluoro-4-(trifluoromethyl)pyridin-2-yl)oxy)cyclohexyl)-3-(1-methylpiperidin-3-yl)-1H-pyrazolo[4,3-c]pyridin-6-amine], the figures for the IC50 in experiment [1], in experiment [2] and in experiment [3] were less than 10 nM, less than 10 nM and 10 to 100 nM, respectively.
On to `CCNc1cc2c(cn1)c(C1CCN(C)C1)nn2[C@H]1CC[C@@H](Oc2nccc(C(F)(F)F)c2F)CC1` (stereo partly drawn) [Example 325, N-ethyl-1-((1s,4s)-4-((3-fluoro-4-(trifluoromethyl)pyridin-2-yl)oxy)cyclohexyl)-3-(1-methylpyrrolidin-3-yl)-1H-pyrazolo[4,3-c]pyridin-6-amine], for which the IC50 is less than 10 nM in experiment [1], less than 10 nM in experiment [2] and 10 to 100 nM in experiment [3].
In the case of `CCNc1cc2c(cn1)c(C1CCN(C(C)C)CC1)nn2[C@H]1CC[C@@H](Oc2nccc(C(F)(F)F)c2F)CC1` [Example 326, N-ethyl-1-((1s,4s)-4-((3-fluoro-4-(trifluoromethyl)pyridin-2-yl)oxy)cyclohexyl)-3-(1-isopropylpiperidin-4-yl)-1H-pyrazolo[4,3-c]pyridin-6-amine], the figures for the IC50 in experiment [1], in experiment [2] and in experiment [3] were less than 10 nM, less than 10 nM and 10 to 100 nM, respectively.
For the compound `CCNc1cc2c(cn1)c(C1CCN(CCOC)CC1)nn2[C@H]1CC[C@@H](Oc2nccc(C(F)(F)F)c2F)CC1` [Example 327, N-ethyl-1-((1s,4s)-4-((3-fluoro-4-(trifluoromethyl)pyridin-2-yl)oxy)cyclohexyl)-3-(1-(2-methoxyethyl)piperidin-4-yl)-1H-pyrazolo[4,3-c]pyridin-6-amine], the concentration for half-maximal inhibition (IC50) in experiment [1] is less than 10 nM; in experiment [2], less than 10 nM; in experiment [3] it was 10 to 100 nM.
On to `CCNc1cc2c(cn1)c(C1CCN(C3CCN(C)CC3)CC1)nn2[C@H]1CC[C@@H](Oc2nccc(C(F)(F)F)c2F)CC1` [Example 328, N-ethyl-1-((1s,4s)-4-((3-fluoro-4-(trifluoromethyl)pyridin-2-yl)oxy)cyclohexyl)-3-(1′-methyl-[1,4′-bipiperidin]-4-yl)-1H-pyrazolo[4,3-c]pyridin-6-amine], for which the IC50 in experiment [1], in experiment [2] and in experiment [3] was less than 10 nM throughout.
As to `CCNc1cc2c(cn1)c(C1CCN(C(=O)C(C)C)CC1)nn2[C@H]1CC[C@@H](Oc2nccc(C(F)(F)F)c2F)CC1` [Example 329, 1-(4-(6-(ethylamino)-1-((1s,4s)-4-((3-fluoro-4-(trifluoromethyl)pyridin-2-yl)oxy)cyclohexyl)-1H-pyrazolo[4,3-c]pyridin-3-yl)piperidin-1-yl)-2-methylpropan-1-one], the values for the IC50 in experiment [1], in experiment [2] and in experiment [3] were less than 10 nM, less than 10 nM and 10 to 100 nM, respectively.
For `CCNc1cc2c(cn1)c(N1CCOCC1)nn2[C@H]1CC[C@@H](Oc2nccc(C(F)(F)F)c2F)CC1` [Example 330, N-ethyl-1-((1s,4s)-4-((3-fluoro-4-(trifluoromethyl)pyridin-2-yl)oxy)cyclohexyl)-3-morpholino-1H-pyrazolo[4,3-c]pyridin-6-amine], the IC50 in experiment [1] was less than 10 nM; in experiment [2] it was less than 10 nM; in experiment [3], 10 to 100 nM.
Take `CCNc1cc2c(cn1)c(N1CCN(C)CC1)nn2[C@H]1CC[C@@H](Oc2nccc(C(F)(F)F)c2F)CC1` [Example 331, N-ethyl-1-((1s,4s)-4((3-fluoro-4-(trifluoromethyl)pyridin-2-yl)oxy)cyclohexyl)-3-(4-methylpiperazin-1-yl)-1H-pyrazolo[4,3-c]pyridin-6-amine]: the IC50 in experiment [1], in experiment [2] and in experiment [3] was less than 10 nM in each case.
As to `CCNc1cc2c(cn1)c(N1CCC(OC)CC1)nn2[C@H]1CC[C@@H](Oc2nccc(C(F)(F)F)c2F)CC1` [Example 333, N-ethyl-1-((1s,4s)-4((3-fluoro-4-(trifluoromethyl)pyridin-2-yl)oxy)cyclohexyl)-3-(4-methoxypiperidin-1-yl)-1H-pyrazolo[4,3-c]pyridin-6-amine], the IC50 in experiment [1], in experiment [2] and in experiment [3] was less than 10 nM each time.
